# Literature values, collected in patent US20140112913A1, “METHODS OF PROGNOSING AND ADMINISTERING TREATMENT FOR INFLAMMATORY DISORDERS” (Genqual Corporation, priority 2011, published 2014).
# Conditions: treatment of rheumatoid arthritis; patients who failed adequate treatment with other approved therapies
substance,measurement,value
Actemra: anti-IL-6 humanized mAb against soluble and cellular IL-6 receptor,failure rate due to side effects or lack of efficacy,around one-third
